Experimental data: patent US20200031778A1, “NOVEL 5-SUBSTITUTED IMIDAZOLYLMETHYL DERIVATIVES” (Bayer CropScience Aktiengesellschaft, priority 2016, published 2020)

Experiments:
Septoria tritici = test: Example IX-B: in vivo preventive test on Septoria tritici (leaf spot on wheat); conditions: Zymoseptoria tritici, 576 h; compounds of formula IX; 500 ppm of active ingredient; wheat plants, preventive spray; evaluated 24 days after inoculation; read-out: efficacy
Experimental: Example IX-B: In Vivo Preventive Test on Septoria Tritici (Leaf Spot on Wheat)
(§1) The active ingredients are made soluble and homogenized in a mixture of Dimethyl sulfoxide/Acetone/Tween® 80 and then diluted in water to the desired concentration.
(§2) The young plants of wheat are treated by spraying the active ingredient prepared as described above. Control plants are treated only with an aqueous solution of Acetone/Dimethyl sulfoxide/Tween® 80.
After 24 hours, the plants are contaminated by spraying the leaves with an aqueous suspension of Septoria tritici spores. The contaminated wheat plants are incubated for 72 hours at 18° C. and at 100% relative humidity and then for 21 days at 20° C. and at 90% relative humidity.
The test is evaluated 24 days after the inoculation. 0% means an efficacy which corresponds to that of the control plants while an efficacy of 100% means that no disease is observed.

[1] = Log P by HPLC on reversed phase columns (EEC directive 79/831 Annex V.A8; methods [a], [b], [c]); format: physicochemical; conditions: reversed phase HPLC column; method [a]: LC-UV, acidic range, 0.1% formic acid in water and acetonitrile as eluent (linear gradient from 10% to 95% acetonitrile)
How it was run: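 Log P derived from retention times, interpolated linearly between bracketing straight-chain alkan-2-ones (3–16 carbons) of known Log P. Eluents ran acetonitrile 10% to 95% against water with 0.1% formic acid ([a], acidic), 0.001 M ammonium acetate ([b], neutral) or 0.1% phosphoric acid ([c], acidic); UV read-out.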

Sphaerotheca fuliginea = test: Example IX-C: in vivo preventive test on Sphaerotheca fuliginea (powdery mildew on cucurbits); conditions: Podosphaera fuliginea, 360 h; compounds of formula IX; 500 ppm of active ingredient; gherkin plants, preventive spray; evaluated 15 days after inoculation; read-out: efficacy
Experimental: Example IX-C: In Vivo Preventive Test on Sphaerotheca Fuliginea (Powdery Mildew on Cucurbits)
as §1
The young plants of gherkin are treated by spraying the active ingredient prepared as described above. Control plants are treated only with an aqueous solution of Acetone/Dimethyl sulfoxide/Tween® 80.
After 24 hours, the plants are contaminated by spraying the leaves with an aqueous suspension of Sphaerotheca fuliginea spores. The contaminated gherkin plants are incubated for 72 hours at 18° C. and at 100% relative humidity and then for 12 days at 20° C. and at 70-80% relative humidity.
The test is evaluated 15 days after the inoculation. 0% means an efficacy which corresponds to that of the control plants while an efficacy of 100% means that no disease is observed.

Puccinia recondita = test: Example IX-A: in vivo preventive test on Puccinia recondita (brown rust on wheat); conditions: 264 h, compounds of formula IX, 500 ppm of active ingredient, wheat plants, preventive spray, evaluated 11 days after inoculation, read-out: efficacy
Experimental: Example IX-A: In Vivo Preventive Test on Puccinia Recondita (Brown Rust on Wheat)
as §1, §2
After 24 hours, the plants are contaminated by spraying the leaves with an aqueous suspension of Puccinia recondita spores. The contaminated wheat plants are incubated for 24 hours at 20° C. and at 100% relative humidity and then for 10 days at 20° C. and at 70-80% relative humidity.
The test is evaluated 11 days after the inoculation. 0% means an efficacy which corresponds to that of the control plants while an efficacy of 100% means that no disease is observed.

SMILES | pest or weed control at 500 ppm (Septoria tritici) | chromatographic logP [1] | pest or weed control at 500 ppm (Sphaerotheca fuliginea) | pest or weed control at 500 ppm (Puccinia recondita)
O=C(Cn1cncc1Cl)c1ncc(Oc2ccccc2)cc1Cl [IX-01] | 80 to 89% | 2.44 | – | –
O=C(Cn1cncc1Br)c1ccc(Oc2ccc(C(F)(F)F)cc2)c(Cl)c1 [IX-03] | 90 to 100% | 3.23 | – | –
COc1cc(F)ccc1C(=O)Cn1cncc1Cl [IX-11] | 90 to 100% | 1.34 | – | –
N#Cc1ccc(Oc2ccc(C(=O)Cn3cncc3Cl)c(Cl)c2)cc1 [IX-12] | 90 to 100% | 2.32 | 90 to 100% | –
O=C(Cn1cncc1Cl)c1ccc(Oc2ccc(C(F)(F)F)cc2)c(Br)c1 [IX-16] | 90 to 100% | 3.29 | – | –
O=C(Cn1cncc1Cl)c1ccc(Oc2ccc(C(F)(F)F)cc2)cc1 [IX-17] | 90 to 100% | 2.84 | 90 to 100% | 80 to 89%
O=C(Cn1cncc1Cl)c1ccc(Cl)cc1Cl [IX-19] | 90 to 100% | 1.94 | 90 to 100% | –
O=C(Cn1cncc1Br)c1ccc(Cl)cc1Cl [IX-20] | 90 to 100% | 1.94 | 90 to 100% | –
O=C(Cn1cncc1Cl)c1ccc(Oc2ccc(Cl)cc2)cc1 [IX-21] | 90 to 100% | 2.63 | 90 to 100% | 80 to 89%
O=C(Cn1cncc1Br)c1ccc(Oc2ccc(Cl)cc2)cc1 [IX-22] | 90 to 100% | 2.63 | 90 to 100% | 80 to 89%
COc1ccc(Oc2ccc(C(=O)Cn3cncc3Cl)c(C)n2)c(Cl)c1 [IX-25] | 90 to 100% | 2.33 | – | –
O=C(Cn1cncc1Br)c1ccc(Oc2ccc(S(F)(F)(F)(F)F)cc2)nc1Cl [IX-26] | 80 to 89% | 3.23 | 90 to 100% | 80 to 89%
O=C(Cn1cncc1Br)c1ccc(Oc2ccc(Cl)nc2)nc1Cl [IX-27] | 90 to 100% | 2.13 | 90 to 100% | –
O=C(Cn1cncc1Cl)c1ccc(Oc2ccc(Cl)nc2)cc1C(F)(F)F [IX-28] | 90 to 100% | 2.45 | 90 to 100% | 80 to 89%
O=C(Cn1cncc1Cl)c1ccc(F)cc1Br [IX-35] | – | 1.57 | 90 to 100% | –
O=C(Cn1cncc1Br)c1ccc(Oc2ccc(Cl)cc2)cc1C(F)(F)F [IX-41] | 90 to 100% | 3.35 | – | 80 to 89%
O=C(Cn1cncc1Cl)c1ccc(Oc2ccc(Cl)nc2)cc1Cl [IX-44] | 90 to 100% | 2.2 | 90 to 100% | 80 to 89%
O=C(Cn1cncc1C(F)(F)F)c1ccc(Oc2ccc(I)cc2)cc1F [IX-49] | 90 to 100% | 4.16 | – | 80 to 89%
O=C(Cn1cncc1Br)c1ccc(Oc2ccc(C(F)(F)F)cc2)cc1C(F)(F)F [IX-51] | 90 to 100% | 3.51 | 90 to 100% | 80 to 89%
O=C(Cn1cncc1Cl)c1ccc(Oc2ccc(Cl)cc2)nc1C(F)(F)F [IX-52] | 90 to 100% | 3 | 70 to 79% | 90 to 100%
O=C(Cn1cncc1Br)c1ccc(Oc2ccc(Cl)cn2)cc1Cl [IX-55] | 90 to 100% | 2.52 | 90 to 100% | 80 to 89%
O=C(Cn1cncc1Br)c1ccc(Oc2ccc(Cl)nc2)cc1Cl [IX-56] | 90 to 100% | 2.25 | – | 80 to 89%

SMILES | pest or weed control at 500 ppm (Septoria tritici) | chromatographic logP [1] | pest or weed control at 500 ppm (Sphaerotheca fuliginea) | pest or weed control at 500 ppm (Puccinia recondita)
N#Cc1cncn1CC(=O)c1ccc(Oc2ccc(Cl)cn2)cc1Cl [IX-70] | 70 to 79% | 2.8 | 90 to 100% | 80 to 89%
N#Cc1cncn1CC(=O)c1ccc(Oc2ccc(Cl)cn2)cc1C(F)(F)F [IX-71] | 90 to 100% | 3.01 | 90 to 100% | 90 to 100%
O=C(Cn1cncc1Cl)c1ccc(Oc2ccc(Cl)cn2)cc1C(F)(F)F [IX-72] | 90 to 100% | 2.75 | 70 to 79% | 80 to 89%
N#Cc1cncn1CC(=O)c1ccc(Oc2ccc(Br)nc2)cc1Cl [IX-76] | 90 to 100% | 2.7 | – | –
N#Cc1cncn1CC(=O)c1ccc(Cl)cc1 [IX-90] | 90 to 100% | 2.04 | 80 to 89% | 80 to 89%
N#Cc1cncn1CC(=O)c1cnc(Oc2ccc(Cl)cc2F)cc1C(F)(F)F [IX-96] | 90 to 100% | 3.46 | 90 to 100% | 80 to 89%
N#Cc1cncn1CC(=O)c1ccc(Cl)cc1Cl [IX-99] | 90 to 100% | 2.34 | 90 to 100% | 70 to 79%
N#Cc1cncn1CC(=O)c1ccc(F)cc1 [IX-100, 3-[2-(4-fluorophenyl)-2-oxo-ethyl]imidazole-4-carbonitrile] | 90 to 100% | 1.58 | 90 to 100% | –
CC(=O)c1cncn1CC(=O)c1cnc(Oc2ccc(C(F)F)cc2)cc1C(F)(F)F [IX-103] | 90 to 100% | 2.71 | 90 to 100% | –
N#Cc1cncn1CC(=O)c1ccccc1F [IX-113] | 70 to 79% | 1.65 | – | –
N#Cc1cncn1CC(=O)c1ccc(OC(F)(F)F)cc1 [IX-116] | 80 to 89% | 2.12 | 80 to 89% | –
N#Cc1cncn1CC(=O)c1ccc(C(F)(F)F)cc1 [IX-117] | 90 to 100% | 1.99 | – | –
CC(=O)c1cncn1CC(=O)c1ccc(Oc2ccc(Br)cc2)nc1C(F)(F)F [IX-122] | 90 to 100% | 3.31 | 90 to 100% | –
N#Cc1cncn1CC(=O)c1ccc(Oc2c(F)cc(Cl)cc2F)nc1C(F)(F)F [IX-124] | 90 to 100% | 3.28 | – | –
N#Cc1cncn1CC(=O)c1ccccc1Cl [IX-126] | 80 to 89% | 1.81 | 70 to 79% | –
N#Cc1cncn1CC(=O)c1ccccc1Br [IX-127] | 90 to 100% | 1.79 | – | –
N#Cc1cncn1CC(=O)c1ccc(Oc2ccc(Cl)cc2F)nc1C(F)(F)F [IX-128] | 90 to 100% | 3.14 | 90 to 100% | 70 to 79%
CC(=O)c1cncn1CC(=O)c1ccc(Oc2ccc(C(F)(F)F)nc2)nc1C(F)(F)F [IX-133] | 90 to 100% | 2.6 | – | –
N#Cc1cncn1CC(=O)c1ccccc1C(F)(F)F [IX-138] | – | 2.07 | 90 to 100% | –
N#Cc1cncn1CC(=O)c1ccc(Oc2ccc(Cl)nc2)nc1C(F)(F)F [IX-140] | 90 to 100% | 2.55 | 90 to 100% | –
N#Cc1cncn1CC(=O)c1cnc(Oc2ccc(Cl)nc2)cc1C(F)(F)F [IX-141] | 90 to 100% | 2.62 | 90 to 100% | –
O=C(Cn1cncc1F)c1ccc(Oc2ccc(Br)nc2)nc1C(F)(F)F [IX-142] | 90 to 100% | 2.14 | 90 to 100% | –
